In patent EP0255256A2, “Antibiotics produced by actinomadura parvosata” (SMITHKLINE BECKMAN CORPORATION, priority 1986, dated 1988):
Values after ≈ are worked out from the molar mass of the structure shown. Read-outs that look alike come from different tables or passages of the source.

Columns and labels:
[1] = tested on: A. parvosata; experiment: Susceptibility of A. parvosata to antibiotic disks; type: cell-based, Actinomadura parvosata; details: BBL susceptibility disks on nutrient agar; rifampin 5 ug, penicillin 10 U; 1 week at 28°C
Protocol: Susceptibility of A. parvosata to antibiotics was examined by placing BBL susceptibility disks on nutrient agar plates seeded with A. parvosata. Plates were placed at 4°C for 1 hour to permit diffusion of the antibiotics. Diameters of the zones of inhibition were measured after incubation for 1 week at 28°C.

[2] = tested on: Staph. aureus 2620; experiment: MIC, standard microtiter assay; type: cell-based; details: Staphylococcus aureus, Staph. aureus 2620, read-out: MIC
Protocol: (§1) The in vitro minimal inhibitory concentration (MIC) of the AAJ-271 complex and its factors, and vancomycin were determined for a number of microorganisms using the standard microtite'r assay procedures. The results are shown in the following tables, each of which represents a different production run of the complex.
(§2) The in vitro minimal inhibitory concentration (MIC) and the in vitro minimal bactericidal concentration (MBC) of the AAJ-271 aglycones, pseudo-aglycone and vancomycin were determined for a number of microorganisms using the standard microtiter assay procedures.

[3] = tested on: Staph. epidermidis 2265; experiment: MIC, standard microtiter assay; type: cell-based; details: Staphylococcus epidermidis, Staph. epidermidis 2265, read-out: MIC
Protocol: as §1, §2

[4] = tested on: Strep. faecalis 657; experiment: MIC, standard microtiter assay; type: cell-based; details: Enterococcus faecalis, Strep. faecalis 657, read-out: MIC
Protocol: as §1, §2

[5] = tested on: Staph. haemolyticus 651; experiment: MIC, standard microtiter assay; type: cell-based; details: Staphylococcus haemolyticus, Staph. haemolyticus 651, read-out: MIC
Protocol: as §1, §2

[6] = tested on: Staph. aureus 675; experiment: MIC, standard microtiter assay; type: cell-based; details: Staphylococcus aureus, Staph. aureus 675, read-out: MIC
Protocol: as §1, §2

[7] = tested on: Staph. epidermidis 2479; experiment: MIC, standard microtiter assay; type: cell-based; details: Staphylococcus epidermidis, Staph. epidermidis 2479, read-out: MIC
Protocol: as §1, §2

[8] = tested on: Staph. aureus HH127; experiment: MIC, standard microtiter assay; type: cell-based; details: Staphylococcus aureus, Staph. aureus HH127, read-out: MIC
Protocol: as §1, §2

[9] = tested on: Strep. faecalis 34358; experiment: MIC, standard microtiter assay; type: cell-based; details: Enterococcus faecalis, Strep. faecalis 34358, read-out: MIC
Protocol: as §1, §2

[10] = tested on: Staph. aureus 2620; experiment: MBC, standard assay procedures; type: cell-based; details: Staphylococcus aureus, Staph. aureus 2620, read-out: MBC
Protocol: (§3) The in vitro minimal bactericidal concentration (MBC) of the AAJ-271 C, C2 and C3 factors and vancomycin were determined for a number of microorganisms using standard assay procedures.
as §2

[11] = tested on: Staph. epidermidis 2265; experiment: MBC, standard assay procedures; type: cell-based; details: Staphylococcus epidermidis, Staph. epidermidis 2265, read-out: MBC
Protocol: as §3, §2

[12] = tested on: Strep. faecalis 657; experiment: MBC, standard assay procedures; type: cell-based; details: Enterococcus faecalis, Strep. faecalis 657, read-out: MBC
Protocol: as §3, §2

[13] = tested on: Staph. haemolyticus 651; experiment: MBC, standard assay procedures; type: cell-based; details: Staphylococcus haemolyticus, Staph. haemolyticus 651, read-out: MBC
Protocol: as §3, §2

[14] = tested on: Staph. aureus 675; experiment: MBC, standard assay procedures; type: cell-based; details: Staphylococcus aureus, Staph. aureus 675, read-out: MBC
Protocol: as §3, §2

[15] = tested on: Staph. epidermidis 2479; experiment: MBC, standard assay procedures; type: cell-based; details: Staphylococcus epidermidis, Staph. epidermidis 2479, read-out: MBC
Protocol: as §3, §2

[16] = tested on: Staph. aureus HH127; experiment: MBC, standard assay procedures; type: cell-based; details: Staphylococcus aureus, Staph. aureus HH127, read-out: MBC
Protocol: as §3, §2

[17] = tested on: Strep. faecalis 34358; experiment: MBC, standard assay procedures; type: cell-based; details: Enterococcus faecalis, Strep. faecalis 34358, read-out: MBC
Protocol: as §3, §2

[18] = tested on: Staph. aureus 209P vancomycin resistant mutant; experiment: MIC, standard microtiter assay; type: cell-based; details: Staphylococcus aureus, read-out: MIC in μg/ml
Protocol: as §2

[19] = tested on: Staph. epidermidis 2261; experiment: MIC, standard microtiter assay; type: cell-based; details: Staphylococcus epidermidis; Staph. epidermidis 2261; Table VIII; read-out: MIC
Protocol: as §2

[20] = tested on: Staph. epidermidis 2588; experiment: MBC, standard assay procedures; type: cell-based; details: Staphylococcus epidermidis; Staph. epidermidis 2588; Table VIII; read-out: MBC
Protocol: as §2

[21] = tested on: Staph. aureus 209P; experiment: MBC, standard assay procedures; type: cell-based; details: Staphylococcus aureus; Staph. aureus 209P; Table VIII; read-out: MBC
Protocol: as §2

[22] = tested on: Staph. aureus 910; experiment: MBC, standard assay procedures; type: cell-based; details: Staphylococcus aureus; Staph. aureus 910; Table VIII; read-out: MBC
Protocol: as §2

[23] = tested on: Staph. aureus 209P vancomycin resistant mutant; experiment: MBC, standard assay procedures; type: cell-based; details: Staphylococcus aureus, read-out: MBC in μg/ml
Protocol: as §2

[24] = tested on: Strep. pyogenes (Group A); experiment: MBC, standard assay procedures; type: cell-based; details: Streptococcus pyogenes; Strep. pyogenes (Group A); Table VIII; read-out: MBC
Protocol: as §2

[25] = tested on: Staph. epidermidis 2256; experiment: MBC, standard assay procedures; type: cell-based; details: Staphylococcus epidermidis; Staph. epidermidis 2256; Table VIII; read-out: MBC
Protocol: as §2

[26] = tested on: Staph. saprophyticus 2657; experiment: MBC, standard assay procedures; type: cell-based; details: Staphylococcus saprophyticus; Staph. saprophyticus 2657; Table VIII; read-out: MBC
Protocol: as §2

[27] = tested on: Staph. epidermidis 2261; experiment: MBC, standard assay procedures; type: cell-based; details: Staphylococcus epidermidis; Staph. epidermidis 2261; Table VIII; read-out: MBC
Protocol: as §2

[28] = tested on: Staph. epidermidis 2588; experiment: MIC, standard microtiter assay; type: cell-based; details: Staphylococcus epidermidis; Staph. epidermidis 2588; Table VIII; read-out: MIC
Protocol: as §1, §2

[29] = tested on: Staph. aureus 209P; experiment: MIC, standard microtiter assay; type: cell-based; details: Staphylococcus aureus; Staph. aureus 209P; Table VIII; read-out: MIC
Protocol: as §1, §2

[30] = tested on: Staph. aureus 910; experiment: MIC, standard microtiter assay; type: cell-based; details: Staphylococcus aureus; Staph. aureus 910; Table VIII; read-out: MIC
Protocol: as §1, §2

[31] = tested on: Strep. pyogenes (Group A); experiment: MIC, standard microtiter assay; type: cell-based; details: Streptococcus pyogenes; Strep. pyogenes (Group A); Table VIII; read-out: MIC
Protocol: as §1, §2

[32] = tested on: Staph. epidermidis 2256; experiment: MIC, standard microtiter assay; type: cell-based; details: Staphylococcus epidermidis; Staph. epidermidis 2256; Table VIII; read-out: MIC
Protocol: as §1, §2

[33] = tested on: Staph. saprophyticus 2657; experiment: MIC, standard microtiter assay; type: cell-based; details: Staphylococcus saprophyticus; Staph. saprophyticus 2657; Table VIII; read-out: MIC
Protocol: as §1, §2

## penicillin
[1]
  susceptibility of A. parvosata to antibiotic disks (zones of inhibition): resistant

## CNC1C(=O)NC2Cc3ccc(cc3)Oc3cc4cc(c3O)Oc3ccc(cc3Cl)C(O)C3NC(=O)C(NC(=O)C4NC(=O)C(NC2=O)c2cc(cc(O)c2Cl)Oc2cc1ccc2O)c1ccc(O)c(c1)-c1c(O[C@H]2O[C@H](CO)[C@@H](O)[C@H](O)[C@@H]2O)cc(O)cc1C(C(=O)O)NC3=O (stereo partly shown) [AAJ 271 Pseudo-aglycone]
[2]; Table IX
  MIC: 3.1 µg/mL (≈ 2.25 µM)
[3]; Table IX
  MIC: 12.5 µg/mL (≈ 9.09 µM)
[4]; Table IX
  MIC: 3.1 µg/mL (≈ 2.25 µM)
[5]; Table IX
  MIC: 25 µg/mL (≈ 18.2 µM)
[6]; Table IX
  MIC: 3.1 µg/mL (≈ 2.25 µM)
[7]; Table IX
  MIC: 6.3 µg/mL (≈ 4.58 µM)
[8]; Table IX
  MIC: 3.1 µg/mL (≈ 2.25 µM)
[9]; Table IX
  MIC: 3.1 µg/mL (≈ 2.25 µM)
[10]; Table IX
  MBC: 3.1 µg/mL (≈ 2.25 µM)
[11]; Table IX
  MBC: 12.5 µg/mL (≈ 9.09 µM)
[12]; Table IX
  MBC: 3.1 µg/mL (≈ 2.25 µM)
[13]; Table IX
  MBC: 25 µg/mL (≈ 18.2 µM)
[14]; Table IX
  MBC: 3.1 µg/mL (≈ 2.25 µM)
[15]; Table IX
  MBC: 6.3 µg/mL (≈ 4.58 µM)
[16]; Table IX
  MBC: 6.3 µg/mL (≈ 4.58 µM)
[17]; Table IX
  MBC: 3.1 µg/mL (≈ 2.25 µM)

## CN(C)C1C(=O)NC2Cc3ccc(cc3)Oc3cc4cc(c3O)Oc3ccc(cc3Cl)C(O)C3NC(=O)C(NC(=O)C4NC(=O)C(NC2=O)c2cc(cc(O)c2Cl)Oc2cc1ccc2O)c1ccc(O)c(c1)-c1c(O)cc(O)cc1C(C(=O)O)NC3=O (stereo not shown) [Aglycone 2]
[18]
  MIC: 25 µg/mL (≈ 20.4 µM)
[19]
  MIC: 1.6 µg/mL (≈ 1.3 µM)
[20]
  MBC: 3.1 µg/mL (≈ 2.53 µM)
[21]
  MBC: 0.4 µg/mL (≈ 0.326 µM)
[22]
  MBC: 0.4 µg/mL (≈ 0.326 µM)
[23]
  MBC: 25 µg/mL (≈ 20.4 µM)
[24]
  MBC: 0.8 µg/mL (≈ 0.652 µM)
[25]
  MBC: 0.8 µg/mL (≈ 0.652 µM)
[26]
  MBC: 0.8 µg/mL (≈ 0.652 µM)
[27]
  MBC: 1.6 µg/mL (≈ 1.3 µM)
[2]; Table VIII
  MIC: 0.8 µg/mL (≈ 0.652 µM)
[28]
  MIC: 1.6 µg/mL (≈ 1.3 µM)
[29]
  MIC: 0.4 µg/mL (≈ 0.326 µM)
[30]
  MIC: 0.4 µg/mL (≈ 0.326 µM)
[3]; Table VIII
  MIC: 0.8 µg/mL (≈ 0.652 µM)
[4]; Table VIII
  MIC: 1.6 µg/mL (≈ 1.3 µM)
[31]
  MIC: 1.6 µg/mL (≈ 1.3 µM)
[5]; Table VIII
  MIC: 6.3 µg/mL (≈ 5.13 µM)
[32]
  MIC: 0.8 µg/mL (≈ 0.652 µM)
[6]; Table VIII
  MIC: 0.4 µg/mL (≈ 0.326 µM)
[33]
  MIC: 0.8 µg/mL (≈ 0.652 µM)
[7]; Table VIII
  MIC: 0.8 µg/mL (≈ 0.652 µM)
[8]; Table VIII
  MIC: 0.4 µg/mL (≈ 0.326 µM)
[9]; Table VIII
  MIC: 1.6 µg/mL (≈ 1.3 µM)
[10]; Table VIII
  MBC: 0.8 µg/mL (≈ 0.652 µM)
[11]; Table VIII
  MBC: 0.8 µg/mL (≈ 0.652 µM)
[12]; Table VIII
  MBC: 6.3 µg/mL (≈ 5.13 µM)
[13]; Table VIII
  MBC: 6.3 µg/mL (≈ 5.13 µM)
[14]; Table VIII
  MBC: 0.4 µg/mL (≈ 0.326 µM)
[15]; Table VIII
  MBC: 0.8 µg/mL (≈ 0.652 µM)
[16]; Table VIII
  MBC: 0.4 µg/mL (≈ 0.326 µM)
[17]; Table VIII
  MBC: > 50 µg/mL
